Source: US5667764A, “Compounds, compositions and methods for binding bio-affecting substances to surface membranes of bio-particles” (Zynaxis, Inc., priority 1992, dated 1997)

What was measured:
[1] = tested on: rabbit hind limb (femoral arterial bed), substance P receptors; assay: Vascular response in rabbit blood perfused hind limb preparation; format: in vivo; details: for ED50: calculated by logistic function, three rabbits; for Effect of antagonist [D-Pro^2,D-Trp^7.9]-substance P on the response: during infusion of antagonist; for Dose at which maximum fall in pressure is achieved / Threshold (minimum) dose required to produce a fall in perfusion pressure / Hind-limb perfusion pressure response: local injection; for Hind-limb perfusion pressure response: no antagonist
Source text: The in vivo receptor pharmacology of the compound produced in Example 3d., above, was studied in a rabbit blood perfused hind limb preparation similar to that described by U. Forstermann et al., J. Pharmacol. Exp. Ther., 234: 1055-61 (1987). Blood from a pentobarbital anesthetized, artificially ventilated rabbit was withdrawn from a cannulated carotid artery, passed within medical grade silastic tubing through a constant speed roller pump, and directed to a cannulated femoral artery. Distal perfusion pressure in the femoral arterial bed was measured (in mm Hg) by means of a micropressure transducer (Millar) passed down the perfusion tubing so as to lie just beyond the tip of the femoral catheter. Initially, pump speed was adjusted so that distal perfusion pressure approximated systemic mean arterial blood pressure after which blood flow was kept constant for the remainder of each experiment. Changes in resistance then varied directly as distal perfusion pressure in a manner similar to that described by Ohm's law, such that:
Vascular Resistance=Perfusion Pressure Blood Flow
Thus, by maintaining blood flow constant for the duration of each experiment, changes in distal perfusion pressure directly reflected vascular resistance such that a decrease in pressure signifies vasodilation and an increase in pressure signifies vasoconstriction. Direct injection into the perfusion circuit could thus be used to assess the vascular biology and pharmacology of substances believed to exert actions on in vivo vascular smooth muscle tone.

[2] = tested on: rabbit red blood cells; assay: In vivo stability of conjugate on red blood cells
Protocol: To study the in vivo characteristics of red blood cells labeled with the conjugate of Example 3d., above, 0.5 ml of fresh anticoagulated blood from each of 2 rabbits was labeled with the conjugate (final concentration, 10 μM) and injected back in the same rabbit from which the blood was taken. After the conjugate labeling but prior to injection, an aliquot of labeled cells was examined by flow cytometry to insure adequate labeling. Following in vivo administration of the labeled cells, blood samples were removed at 30 minutes, and then 1, 2, 3, 4, and 7 days and examined by flow cytometry for fluorescent cells.

[3] = tested on: rabbit red blood cells; assay: Binding of conjugate to washed rabbit red blood cells, flow cytometry; format: cell-based; details: ex vivo, 100 uM
Protocol: The conjugate of Example 3d. […] The fluorescent moiety of the conjugate allows its ready detection on RBCs by flow cytometry. When conjugate labeled rabbit RBCs are injected in the rabbit hind-limb, a reduction in perfusion pressure occurs, the magnitude of which is related to the number of injected cells.

[4] = tested on: human RBCs; assay: Flow cytometry of conjugate-labeled human RBCs with anti-substance P antibody; format: cell-based
Protocol: Specifically, untreated RBCs and conjugate-labeled RBCs were analyzed to determine if:
1. The conjugate was incorporated on the surface of cells (FIG. 3A comparison).
2. Fluorescein isothiocyanate (FITC) conjugated goat anti-rabbit antibodies nonspecifically bound to the conjugate-labeled or non-labeled cells (FIG. 3B comparison), or
3. rabbit anti-substance P antibodies+FITC anti-rabbit antibodies specifically bound to the conjugate-labeled RBCs (FIG. 3C comparison).

[5] = tested on: membrane ghosts; assay: Membrane binding stability (MBS) assay in membrane ghosts with 5% albumin; details: 24 hours, Table III
Source text: Determination of Membrane Binding Stability
For example, very stable binding to membranes might be required for applications such as delivery of therapeutic radionuclides to tumor sites, as loss of compound could lead to the radionuclide producing its toxic effect at non-tumor sites. On the other hand, more rapid loss of compound from biomembranes may be desirable for application involving controlled delivery rates of therapeutic agents. Accordingly, there is described hereinbelow an assay for determining MBS under conditions approximating those found in vivo.
In carrying out this assay, approximately physiological concentrations of serum albumin (5%) are used. […] To better approximate the effects of large fluid volumes to which labelled cells are exposed in vivo, the assay for MBS is carried out by suspending a decreasing number of labeled membrane ghosts in a fixed volume of albumin-containing saline. At 24 hours, the total amount of label present is determined by sampling the well mixed suspension; subsequently, the membrane ghosts are pelleted by centrifugation and the amount of label released into the supernatant is determined and expressed as a percent of total label. Percent retention is plotted against number of ghosts per ml. of suspension, and MBS is determined as the area under the curve between 5×10^7 ghosts/ml. and 4×10^8 ghosts/ml.

[6] = tested on: erythrocyte membrane ghosts; assay: Relative membrane retention in erythrocyte membrane ghosts (iodination study); format: binding; details: 24 hours, 37° C., PBS+EDTA+5% BSA
Protocol: Relative membrane retention was determined using erythrocyte membrane ghosts prepared by NH4 Cl lysis (Slezak and Horan, Blood, supra). Ghosts were labeled at 4×10^8 /ml with 10 μM compounds for 5 minutes at room temperature, using previously described procedures. However, post-labeling washes were carried out using PBS containing 1 mM EDTA and 5% BSA. After the final wash, ghosts were resuspended at 4×10^8 /ml in PBS+EDTA+5% BSA and incubated for 24 hours at 37° C. At 24 hours, duplicate 50 μl aliquots were withdrawn from a) the well mixed suspension of ghosts (for determination of total compound present), and b) the supernatant remaining after ghosts were pelleted for 15 minutes at 12,500×g (for determination of unbound compound present). Aliquots were extracted by admixture with 200 μl of 100% ethanol and fluorescence intensity of each extract measured using the Fluoroskan II fluorescence microplate reader. Percent compound retained was calculated as
total compound--unbound compound×100/total compound

[7] = tested on: cells (red cell membranes); assay: Number of molecules of compound incorporated per cell; format: cell-based; details: 10 μM compounds
Protocol: Number of molecules of compound incorporated per cell was determined for cells labeled with 10 μM compounds. An aliquot of 10^6 cells (10 ul) was withdrawn from the washed cells after final resuspension and counting, compounds were extracted from the cell membrane by admixture with 250 μl of 100% ethanol, and the fluorescence intensity of 200 μl of the extract was measured using a Fluoroskan II fluorescence microplate reader and filter combination. Concentration of compound in each extract was determined from a calibration curve of known compound concentrations made up in 100% ethanol and measured on the Fluoroskan II. Number of molecules of compound per cell was then calculated from the known extract concentration, total volume of extract, and known number of cells extracted. Calculated values were (4.0±0.4)×10^6 for compound T (1.3±0.2)×10^6 for compound AA and (2.5±0.7)×10^6 for compound AB.

[8] = tested on: cells (red cells); details: 20 uM
[9] = tested on: rabbit red blood cells; details: native Substance P; cited from earlier work

Question: What does the source list for CCCCCCCCCCCCCCCCCCCCCC[N+]1=C(C=CC=C2N(CCCCCCCCCCCCCC)c3ccc(CNC(=O)c4ccc(C(=O)NCCCC[C@H](NC(=O)[C@@H]5CCCN5C(=O)[C@@H](N)CCCNC(=N)N)C(=O)N5CCC[C@H]5C(=O)N[C@@H](CCC(N)=O)C(=O)N[C@@H](CCC(N)=O)C(=O)N[C@@H](Cc5ccccc5)C(=O)N[C@@H](Cc5ccccc5)C(=O)NCC(=O)N[C@@H](CC(C)C)C(=O)N[C@@H](CCSC)C(N)=O)cc4)cc3C2(C)C)C(C)(C)c2ccccc21 [conjugate of Example 3d]?
Answer: Perfusion pressure response to conjugate labeled RBCs ([1]; 10^6 -10^9 labeled RBCs injected): graded decreases in perfusion pressure in the rabbit hind limb preparation; ED50 [1]: 34 pmol; Effect of antagonist [D-Pro^2,D-Trp^7.9]-substance P on the response [1]: inhibited by [D-Pro^2,D-Trp^7.9 ]-substance P; Dose at which maximum fall in pressure is achieved [1]: 1000 pmol; Threshold (minimum) dose required to produce a fall in perfusion pressure [1]: 1 to 10 pmol; Hind-limb perfusion pressure response [1]: brief, dose-related decreases in hind-limb perfusion pressure; Hind-limb perfusion pressure response ([1]; listed as Substance P-lipophilic cyanine conjugate of Example 3.d.): capable of vasodilative activity which is qualitatively similar to that of native Substance P; Vasodilator activity of supernatant fraction of labeled RBCs ([1]; supernatant fractions of labeled RBCs): contained a significant portion of the biological activity of the original cell suspension; In vivo dissociation from labeled cells ([2]; up to 7 days): relatively slowly; Binding to red cells and effect in circulation ([2]; vs free peptide): bind stably to red cells and to provide a protracted therapeutic effect in circulation; Binding to red blood cells [3]: readily binds to washed rabbit red blood cells; Red fluorescent signal of labeled cells ([4]; 10 μM, FIG. 3A): increased red fluorescent signal when compared with the unlabeled cells; Recognition of cell-bound Substance P by anti-substance P antibody ([4]; FIG. 3C): significant amount of both green and red fluorescence detectable on the cells

Question: With CCCCCCCCCCCCCCCCCCCCCC[N+]1=C(C=CC=C2N(CCCCCCCCCCCCCC)c3ccc(CNC=O)cc3C2(C)C)C(C)(C)c2ccccc21 [AB] as the compound, how does the MBS [5] read?
Answer: 91 ± 0.5%

Question: What about the Percent compound retained [6] of the same compound?
Answer: 96.8±1.3%

Question: What about the “Number of molecules of compound incorporated per cell” value [7] of the same compound?
Answer: (2.5±0.7)×10^6 molecules of compound per cell

Question: And the Viability and recovery [8]?
Answer: 70-80%

Question: What does the source list for CSCC[C@H](NC(=O)[C@H](CC(C)C)NC(=O)CNC(=O)[C@H](Cc1ccccc1)NC(=O)[C@H](Cc1ccccc1)NC(=O)[C@H](CCC(N)=O)NC(=O)[C@H](CCC(N)=O)NC(=O)[C@@H]1CCCN1C(=O)[C@H](CCCCN)NC(=O)[C@@H]1CCCN1C(=O)[C@@H](N)CCCNC(=N)N)C(N)=O [Substance P, reference compound]?
Answer: ED50 [1]: 0.13 pmol; Effect of antagonist [D-Pro^2,D-Trp^7.9]-substance P on the response [1]: inhibited by [D-Pro^2,D-Trp^7.9 ]-substance P; Dose at which maximum fall in pressure is achieved [1]: 3 to 10 pmol; Threshold (minimum) dose required to produce a fall in perfusion pressure [1]: approximately 0.003 pmoles; Hind-limb perfusion pressure response [1]: brief, dose-related decreases in hind-limb perfusion pressure; Relative potency of substance P vs conjugate ([1]; ratio of ED50): 250 fold; Lifetime in circulation [9]: minutes
